According to patent US20130005718A1 (priority 2009, published 2013):
pEC50: −log10 of the molar value. Several values for one entry are separate records, joined by “and”; a condition that tells them apart may be missing. Equal values may be shown once. Entries after “also recorded” stand apart in the source; their conditions may differ.

Legend:
[1] = equivalent ionic conditions; cited from earlier work
HCN1 channels = target: T1, HCN1 channels (Mus musculus, UniProt O88704); test: Two-electrode voltage clamp (TEVC) of HCN1 channel gating in Xenopus oocytes; assay type: cell-based, murine; details: for HCN isoform preference (words): HCN1 versus HCN2, 3 or 4
T1 construct: expressed in transfected cells; host or cells: Xenopus oocytes (cRNA injection)
T1 sequence (O88704 whole entry, canonical isoform): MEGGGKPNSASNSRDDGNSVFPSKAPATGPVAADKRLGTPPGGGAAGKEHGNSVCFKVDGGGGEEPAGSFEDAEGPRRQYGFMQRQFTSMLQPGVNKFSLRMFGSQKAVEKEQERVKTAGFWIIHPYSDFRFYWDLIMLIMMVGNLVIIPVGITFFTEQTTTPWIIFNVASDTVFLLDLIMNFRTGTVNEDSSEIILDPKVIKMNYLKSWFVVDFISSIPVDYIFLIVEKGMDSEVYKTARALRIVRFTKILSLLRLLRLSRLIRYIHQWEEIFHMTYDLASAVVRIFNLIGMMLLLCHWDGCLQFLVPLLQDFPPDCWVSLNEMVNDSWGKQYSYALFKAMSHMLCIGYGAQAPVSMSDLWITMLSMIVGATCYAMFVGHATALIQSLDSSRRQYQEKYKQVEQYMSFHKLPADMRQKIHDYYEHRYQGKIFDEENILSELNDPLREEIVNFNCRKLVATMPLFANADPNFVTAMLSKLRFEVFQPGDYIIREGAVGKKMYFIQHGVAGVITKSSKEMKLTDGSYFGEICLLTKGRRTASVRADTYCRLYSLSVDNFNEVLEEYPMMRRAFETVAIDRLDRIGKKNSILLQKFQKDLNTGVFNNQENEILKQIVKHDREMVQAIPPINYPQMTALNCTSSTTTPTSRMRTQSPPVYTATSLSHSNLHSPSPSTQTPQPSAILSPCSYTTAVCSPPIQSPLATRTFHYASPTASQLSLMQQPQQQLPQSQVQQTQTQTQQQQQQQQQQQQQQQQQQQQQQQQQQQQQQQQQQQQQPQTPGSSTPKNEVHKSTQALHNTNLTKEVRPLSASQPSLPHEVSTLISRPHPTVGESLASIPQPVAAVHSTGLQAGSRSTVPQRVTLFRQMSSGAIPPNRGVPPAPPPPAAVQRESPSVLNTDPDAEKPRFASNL

[2] = tested on: PNL-induced mechanical allodynia and hyperalgesia; test: Von Frey fiber test after partial sciatic nerve ligation (PNL); assay type: in vivo, C57 Black/6J mice
[3] = tested on: PNL-induced thermal hyperalgesia; test: Hind paw withdrawal latency (HPWL) to heat source after PNL; assay type: in vivo, C57 Black/6J mice; details: i.p., 15% heat stimulus
[4] = assay type: in vivo, mice
Experimental: Samples and standards were prepared as follows.
For the standard calibration curve, aliquots of 2,6-DTBP acutely solubilized in DMSO were added to 200 μl of chloroform plus the thymol internal standard (total DMSO addition was 2 μl in all cases). 200 μl of H2O were then added and the samples were processed as described above. In all cases, 2 μl of the chloroform phase was injected for analysis.
(§1) To examine 2,6-DTBP bioavailability, 32 mice received dihydroxy-β-cyclodextrin (DHβCD) solubilized 2,6-DTBP (see below), DHβCD alone or saline by intraperitoneal (i.p.) injection with a dosing schedule as per behavioral testing (see below). 10-60 minutes after receipt of the appropriate final dose, mice were anesthetized with 2.5-3% isoflurane then exsanguinated by venous puncture. Blood concentration of 2,6-DTBP was determined by gas chromatography (see below). To consider toxicity of a high acute therapeutic dose of 2,6-DTBP, some animals received a single bolus of 80 mg/kg. To consider toxicity of an acute hyper-therapeutic dose of 2,6-DTBP, all animals that received three 40 mg/kg therapeutic doses during animal behavior experiments received a 120 mg/kg bolus immediately after the 180 minutes of behavioral testing window, thereby raising the cumulative dose to 240 mg/kg. The general condition of all of these animals was followed by qualitative observation of behavior (grooming and exploration) and survival. All animals were sacrificed within 7 days after receipt of a 2,6-DTBP/DHβCD injection.

mice [5] = test: Acute toxicity of 2,6-DTBP (behavior and survival); assay type: in vivo
Experimental: as §1

[6] = Experimental: Serial dilutions were then dispersed into the aqueous recording solutions maintaining the DMSO concentration at 0.04% (W/V). […] To this end, appropriate masses of 2,6-DTBP and DHβCD that would yield 6 ml of 1% 2,6-DTBP, in combination with 40% DHβCD, were combined in a Teflon® capped borosilicate vial and heated to 60° C. in a water bath. This temperature is above the melting point of 2,6-DTBP (36° C. (Lorenc et al., 2003) but below that of DHβCD (>200° C. (Loftsson et al., 1996) and is compatible with stability of both reagents (Lorenc et al., 2003; Loftsson et al., 1996 and CAS documentation). After 15 minutes, the molten 2,6-DTBP was intimately mixed with the DHβCD by vigorous vortexing, 200 μl of 60° C. DI H2O added and, following additional vortexing, the vial returned to the water bath for 15-30 minutes. Following addition of 3 more 200 μl aliquots of deionized water (DI H2O), with corresponding incubation and vortexing, the sample was left at 60° C. overnight. The resulting colorless viscous gel was slowly diluted by addition of the required volume of DI H2O adding no more than 200 μl at a time with 15-30 minutes incubation at 60° C. and vortexing after each addition.
The injection port and FID were at 280° C. while the column temperature was 210° C. The split ratio was 2:1 while the column flow was 6.96 ml/min with helium (linear velocity 65 cm/s).
Samples and standards were prepared as follows. To 200 μl of whole blood (drawn following injection of DHβCD or 2,6-DTBP solubilized in DHβCD), 200 μl of chloroform containing 100 nM thymol (Sigma) as internal standard and 2 μl of DMSO were added. Following mixing (vortex for 20 seconds followed by 30 minutes on a rotator) and subsequent centrifugation (5000×g for 10 minutes at 10° C.), the chloroform phase was transferred into a glass gas chromatography vial and washed with an equal volume of 0.5 M NaOH. […] DHβCD was added to the DMSO-solubilized 2,6-DTBP sample and DMSO was added to the DHβCD-solubilized 2,6-DTBP sample so that the final concentrations of DHβCD and DMSO were equivalent. […]

mice [7] = details: i.v. 80-100 mg/kg; cited from earlier work
[8] = variously reported; cited from earlier work
[9] = in vivo; cited from earlier work
[10] = listed as 2,6-di-tert-butylphenol

SMILES: CCCCC/C=C\C/C=C\C/C=C\C/C=C\CCCC(=O)O [arachidonic acid]
- critical micelle concentration [1]: about 100 μM

SMILES: CC(C)(C)c1cccc(C(C)(C)C)c1O [2,6-DTBP, 2,6-di-tert-butylphenol]
- HCN1 antagonism (HCN1 channels): strongest potency and highest efficacy of the four derivatives
- mean V1/2 of HCN1 activation (HCN1 channels; 10 μM, n=6): −88.3 mV
- mean slope of HCN1 activation (HCN1 channels; 10 μM, n=6): 9.6 mV
- V1/2 of HCN1 activation (Boltzmann fit, cell shown in FIG. 3A) (HCN1 channels; 10 μM, single cell): −90.8 mV
- slope of HCN1 activation (Boltzmann fit, cell shown in FIG. 3A) (HCN1 channels; 10 μM, single cell): 9.7 mV
- post incubation maximal current relative to pre incubation current (HCN1 channels; 20 μM, n=6, difference to control not significant): 108%
- HCN1 ΔV1/2 after 20-minute incubation (HCN1 channels; 20 μM, solubilized in DHβCD, n=6): −27.7 mV
- HCN1 ΔV1/2 after 20-minute incubation (HCN1 channels; 20 μM, solubilized in DMSO, n=6): −31.9 mV
- pEC50 (HCN1 channels; 20 min incubation, Xenopus oocytes, TEVC, read-out: EC50 for hyperpolarization of V1/2 of HCN1 gating (Hill fit)): 5.64 and ~5.64
- HCN isoform preference (words) (HCN1 channels): retains this selectivity profile; also recorded: retains a propofol-like selective efficacy against HCN1 channels
- HCN isoform preference (words) (HCN1 channels; [10]): preferentially inhibit HCN1 with little efficacy against HCN2, 3 or 4 channels
- apparent stoichiometry h (Hill coefficient) (HCN1 channels; Hill fit of dose-response): 1.4
- maximal efficacy ΔV1/2 of HCN1 gating (HCN1 channels; Hill fit of dose-response): −32 mV
- mechanical hyperalgesia/allodynia in ipsilateral paw ([2]; i.p. cumulative dosing, post-PNL mice): ameliorates the behavioral consequences of PNL-induced hyperalgesia; also recorded: selectively suppresses PNL-induced mechanical allodynia and hyperalgesia
- mechanical threshold, Logit transformation (allodynia, words) ([2]; threshold set at PW of 0.1): restore selectively the mechanical threshold to that observed in the uninjured paw
- thermal hyperalgesia, ipsilateral HPWL (words) [3]: ameliorates the behavioral consequences of PNL-induced hyperalgesia; also recorded: selectively ameliorates PNL-induced thermal hyperalgesia
- thermal nociception, contralateral HPWL [3]: without significantly altering nociceptive behavior
- thermal hyperalgesia, ipsilateral HPWL (words) [3, 10]: significantly relieve the neuropathic behavior
- whole blood concentration indicated from the chromatogram shown ([4]; 80 mg/kg i.p. in DHβCD): 3.6 µM
- total concentration in whole blood (mean) ([4]; 80 mg/kg i.p. in DHβCD, n=6): 10.6 µM
- estimated free serum concentration ([4]; analgesic dose of 40-120 mg/kg i.p.): 0.2 to 0.6 µM
- expected free concentration ([4]; from total blood concentration after 80 mg/kg i.p.): 0.1 to 0.5 µM
- tolerability of single bolus dose (mice [5]; 80 mg/kg i.p., four mice, seven day observation): all mice tolerated this dose well
- tolerability of final bolus (mice [5]; 120 mg/kg bolus after three 40 mg/kg doses, cumulative 240 mg/kg i.p.): not well tolerated
- LD75 (mice [5]; acute i.p. dose): ~240 mg/kg
- window in which remaining animals died (mice [5]; cumulative 240 mg/kg i.p.): 14 to 18 h
- therapeutic index (mice [5]; i.p.): 3 to 5
- concentration solubilized in carrier solution [6]: 1 % (W/V)
- solubilization in intralipid emulsion [6]: unsuccessful
- storage stability of the solution [6]: no phase separation or derivative precipitation
- tolerability of acute intravenous exposure (mice [7]): well tolerated
- aqueous solubility limit [8]: 20 to 200 µM
- anesthetic activity [9]: total absence of anesthetic efficacy
